Results on 1 molecule are retold here after EPA's ToxValDB 9.5 (doi:10.2903/j.efsa.2008.127r).

Converted amounts (≈) assume the structure as drawn. Some results are limits rather than exact numbers.

One data set deals with Apis mellifera. To be noted: acute, mortality.
Another data set concerns Bibionidae. Conditions: chronic/long-term; duration: 27 days.
In another data set the test system is Daphnia magna. To be noted: chronic/long-term; duration: 21 days; reproduction.
The subject of another data set is Folsomia candida. Conditions: chronic/long-term; duration: 28 days.

Turning to `CCCCN(CC)c1c([N+](=O)[O-])cc(C(F)(F)F)cc1[N+](=O)[O-]` [Benfluralin], the NOEC with Anas platyrhynchos (reproductive) was found to be 49.3 mg/kg-day; in the data set with Bibionidae, 0.231 mg/L; in the data set with Colinus virginianus (reproduction developmental) it was 8.6 mg/kg-day; in the data set with Daphnia magna, 0.0155 mg/L; with Folsomia candida, 5.5 mg/kg; in the data set with Oncorhynchus mykiss (chronic/long-term, duration: 49 days, growth), 0.0019 mg/L. In the data set on Tagia sp. (chronic/long-term, duration: 8 weeks), this molecule returned an NOEC of 30.8 mg/kg. The LC50 in the data set with Anas platyrhynchos (short-term, oral, feed, mortality) was more than 793 mg/kg-day; with Colinus virginianus (acute, oral, diet, mortality) it was more than 909 mg/kg-day; in the data set on Oncorhynchus mykiss (acute, duration: 96 hours, mortality), 0.081 µg/mL (≈ 0.242 µM); in the data set on Tagia sp. (acute, duration: 14 days, mortality), more than 1000 mg/kg. The LD50 is more than 100 µg/piece in the data set with Apis mellifera (dermal); more than 111 µg/piece with Apis mellifera (oral, unspecified); more than 2000 mg/kg-day in the data set on Colinus virginianus (acute, oral, mortality); more than 5000 mg/kg-day in the data set on Rattus norvegicus (acute, oral, mortality). Moreover, the NOAEL in the data set with Rattus norvegicus (chronic, duration: 2 years, histopathology: nonneoplastic) is 0.5 mg/kg-day; with Rattus norvegicus (reproduction developmental, body weight), 5.5 mg/kg-day; with Rattus norvegicus (subchronic, duration: 90 days, oral, histopathology: nonneoplastic) it was 17 mg/kg-day.
